Experimental data: article PMC2063630 (The Journal of Cell Biology, 2007)
Read-outs that look alike come from different tables or passages of the source. Square brackets hold non-standard residues; d marks the D form. Ends that are not written are not given here. * marks the point of attachment. Biotin = O=C1N[C@H]2[C@H](CS[C@H]2CCCCC(=O)*)N1; pS = N[C@@H](COP(=O)(O)O)C(=O)O

Experiments:
p38 and JNK isoforms = settings: high concentrations; ref Kuma et al., 2005; cited from earlier work
[1] = test system: endogenous WNK1 in 293 cells; type: cell-based; settings: for activation of WNK1 by other stimuli, in words: serum-deprived 16 h, stimulus 30 min
[2] = test system: WNK1 localization in 293 cells; experiment: WNK1 localization in 293 cells by confocal and live-cell imaging, FRAP; type: cell-based; settings: for time to redistribution of GFP-WNK1 to intracellular vesicles / time to reversal after removal (WNK1 diffuse in cytosol): live 293 cells; for time to redistribution of GFP-WNK1 to intracellular vesicles: 0.2 M sorbitol or 0.2 M NaCl; for time to reversal after removal (WNK1 diffuse in cytosol): removal of sorbitol or NaCl; for FRAP: time to redistribution to photobleached area: sorbitol- or NaCl-treated 293 cells
ERK1/2 = experiment: ERK activation in 293 cells; type: cell-based
p38 and JNK = experiment: p38 / JNK activation in 293 cells; type: cell-based; settings: 30 min
[3] = test system: endogenous SPAK and OSR1 in HeLa cells; experiment: SPAK/OSR1 activity in HeLa cells; type: cell-based; settings: 0.5 M sorbitol, 30 min, CATCHtide
[4] = test system: endogenous SPAK and OSR1 in 293 cells; experiment: SPAK/OSR1 activity in 293 cells; type: cell-based; settings: sorbitol, CATCHtide (Fig. S1)
[5] = test system: SPAK and OSR1 T-loop and S-motif; experiment: SPAK/OSR1 T-loop and S-motif phosphorylation; type: cell-based; settings: sorbitol, HeLa and 293 cells
[6] = test system: endogenous WNK1 in 293 cells; type: cell-based, human; settings: 0.5 M sorbitol
[7] = target: OSR1 CCT domain (residues 429–527) (Homo sapiens, UniProt O95747); experiment: Surface plasmon resonance; type: binding; settings: BiaCore, OSR1 CCT domain 6.8–340 nM; vs nonphosphorylated peptide
[8] = test system: OSR1[D164A] phosphorylation by WNK1[1–661]; experiment: Activity of WNK1[1–661] forms expressed in E. coli; type: biochemical; settings: mean of duplicate samples
WNK1 Ser382 [9] = experiment: WNK1 Ser382 phosphorylation, forms expressed in E. coli; type: biochemical
[10] = test system: OSR1[D164A] phosphorylation by WNK1[1–667]; experiment: Activity of GST-WNK1[1–667] forms expressed in 293 cells; type: cell-based
WNK1 Ser382 [11] = experiment: WNK1 Ser382 phosphorylation, forms expressed in 293 cells; type: cell-based; settings: 0.5 M sorbitol, 30 min, phospho-Ser382 antibody
[12] = target: OSR1 CCT domain (residues 429-527) (human, UniProt O95747 429-527); experiment: SPR
[13] = PD184352 2 μM 30 min preincubation, 0.5 M sorbitol 30 min
[14] = U0126, 0.5 M sorbitol, not depicted

Chain of OSR1 CCT domain (residues 429-527) (O95747 429-527): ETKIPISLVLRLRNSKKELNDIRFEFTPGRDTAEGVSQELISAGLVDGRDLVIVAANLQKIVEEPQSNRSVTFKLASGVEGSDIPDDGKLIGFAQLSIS
Chain of OSR1 CCT domain (residues 429–527) (O95747 429-527): as above

For Cc1ccc(-n2nc(C(C)(C)C)cc2NC(=O)Nc2ccc(OCCN3CCOCC3)c3ccccc23)cc1 [BIRB0796], the “inhibition of p38 and JNK isoforms, in words” value (p38 and JNK isoforms) is given as “inhibit all p38 and JNK isoforms”.

For OO [H2O2], the “activation of WNK1 by other stimuli, in words” value [1] was “failed to induce activation of WNK1”.

With [Cl-].[K+] [KCl] the “fold increase of WNK1 activity” value ([1]; 0.5 M KCl, 30 min) was “threefold”.

For [Cl-].[Na+] [NaCl], the “concentration at which WNK1 activation was detectable” value ([1]; NaCl, 30 min) was 50 mM, the “concentration for maximal WNK1 activation” value ([1]; NaCl, 30 min) was 0.15 M and the “time to redistribution of GFP-WNK1 to intracellular vesicles” value [2] was at most 0.5 min. The “time to reversal after removal (WNK1 diffuse in cytosol)” value [2] was at most 2 min and the “FRAP: time to redistribution to photobleached area” value [2] was at most 2 min.

With O=C(NOCC1CC1)c1ccc(F)c(F)c1Nc1ccc(I)cc1Cl [PD184352] the “effect on WNK1 activation by sorbitol” value [1, 13] was “without affecting WNK1 activation” and the “effect on ERK activation by sorbitol” value (ERK1/2; [13]) was “abolished ERK activation by sorbitol”.

With C[S+]([O-])c1ccc(-c2nc(-c3ccncc3)c(-c3ccc(F)cc3)[nH]2)cc1 (centres unmarked) [SB203580] the “effect on WNK1 activation by sorbitol” value [1] was “failed to prevent activation of WNK1 by sorbitol”.

In the case of CCCCCCCCCCCCCC(=O)O[C@@H]1[C@@H](C)[C@@]2(O)[C@@H](C=C(CO)C[C@]3(O)C(=O)C(C)=C[C@@H]23)[C@@H]2C(C)(C)[C@]12OC(C)=O [TPA], the “activation of WNK1 by other stimuli, in words” value [1] is reported as “failed to induce activation of WNK1”.

In the case of N#CC(=C(/N)Sc1ccccc1N)/C(C#N)=C(/N)Sc1ccccc1N [U0126], the “effect on WNK1 activation by sorbitol” value [1, 14] is reported as “without affecting WNK1 activation” and the “effect on ERK activation by sorbitol” value (ERK1/2; [14]) is reported as “abolished ERK activation by sorbitol”.

In the case of COc1ccc(C[C@H]2NC[C@H](O)[C@H]2OC(C)=O)cc1 [anisomycin], the “activation of WNK1 by anisomycin, in words” value ([1]; anisomycin 10 μg/ml, 30 min) is reported as “failed to activate WNK1” and the “p38 and JNK stimulation, in words” value (p38 and JNK; anisomycin 10 μg/ml) is reported as “potently stimulates p38 and JNK”.

With CCCCNc1cc(C(=O)O)cc(S(N)(=O)=O)c1Oc1ccccc1 [bumetanide] the “activation of WNK1 by other stimuli, in words” value [1] was “failed to induce activation of WNK1”.

For COC[C@@H]([C@H](O)[C@H](O)C(=O)NCC[C@H](C)c1nc(/C=C/C[C@@H]2O[C@]3(C[C@@H](O)[C@@H]2C)O[C@H]([C@H](C[C@H](O)[C@H](C)[C@H](O)[C@H](C)/C=C(C)/C(C)=C/C=C/C(C)=C\C#N)OC)[C@H](OP(=O)(O)O)C3(C)C)co1)N(C)C [calyculin A], the “activation of WNK1 by other stimuli, in words” value [1] was “failed to induce activation of WNK1”.

With OC[C@@H](O)[C@@H](O)[C@H](O)[C@@H](O)CO [sorbitol] the “fold increase of WNK1 activity” value ([1]; 0.1–1.0 M sorbitol, 30 min, dose-dependent) was “fivefold”, the “duration of sustained WNK1 activation” value ([1]; 0.5 M sorbitol) was 80 min and the “time at which WNK1 activation was detected” value ([1]; 0.5 M sorbitol) was at most 0.5 min. For the same molecule, the “time to maximal WNK1 activation” value ([1]; 0.5 M sorbitol) was 1 to 2 min, the “fold increase of WNK1 activity (OSR1 phosphorylation rate)” value ([1]; 0.5 M sorbitol, 30 min, vs nontreated cells, duplicate samples) was “approximately threefold” and the “ERK1/2 stimulation, in words” value (ERK1/2; 0.5 M sorbitol, 30 min) was “stimulated the extracellular signal–regulated kinase (ERK) 1/2”. The “p38 and JNK stimulation, in words” value (p38 and JNK; 0.5 M sorbitol) was “stimulated the extracellular signal–regulated kinase (ERK) 1/2, p38, and JNK protein kinases”, the “fold increase of SPAK/OSR1 activity” value [3] was “approximately fivefold” and the “fold increase of SPAK/OSR1 activity” value [4] was “approximately fourfold”. The “SPAK/OSR1 T-loop and S-motif phosphorylation, in words” value [5] was “markedly stimulated the phosphorylation of endogenously expressed SPAK and OSR1 at both the T-loop and S-motif”, the “WNK1 phosphorylation sites stimulated, in words” value ([6]; 32P-labelled 293 cells, 20 min) was “Phosphorylation of two sites, Ser1261 and Ser 2372, was stimulated” and the “WNK1 phosphorylation sites enhanced, in words” value ([6]; unlabeled 293 cells, LC-MS, 30 min) was “five residues (Ser15, Ser167, Ser382, Ser1261, and Thr1848) whose phosphorylation was markedly enhanced”. For the same molecule, the “WNK1 localization, in words” value ([2]; 0.2 M sorbitol, 1 min) was “WNK1 was strikingly observed on discrete intracellular structures”, the “time to redistribution of GFP-WNK1 to intracellular vesicles” value [2] was at most 0.5 min and the “time to reversal after removal (WNK1 diffuse in cytosol)” value [2] was at most 2 min. For the same molecule, the “FRAP: time to redistribution to photobleached area” value [2] was at most 2 min.

For “AGRRFIVpSPVPESRL (AGRRFIV[pS]PVPESRL; also: biotin label, attachment end not given here) [phosphorylated Ser1261 peptide]”, the “binding to OSR1 CCT domain, in words” value [7] was “bound to OSR1 with a markedly lower affinity”.

For IGF-1: IGF-1, the “activation of WNK1 by other stimuli, in words” value [1] was “failed to induce activation of WNK1”.

In the case of TNFα, the “activation of WNK1 by other stimuli, in words” value [1] is reported as “failed to induce activation of WNK1”.

In the case of “WNK1[1–661]: wild-type WNK1 fragment expressed in E. coli”, the specific activity [8] is reported as 5.2 U/mg, the “Ser382 phosphorylation after MgATP, in words” value (WNK1 Ser382 [9]; 0.1 mM ATP, 10 mM Mg, 1 h) is reported as “did not further increase phosphorylation of Ser382” and the “Ser382 phosphorylation, in words” value (WNK1 Ser382 [9]; expressed in E. coli) is reported as “heavily phosphorylated at Ser382”.

For “WNK1[1–667]: N-terminal fragment of WNK1, GST fusion, expressed in 293 cells”, the specific activity ([10]; isolated from sorbitol-stimulated 293 cells) was about 0.13 U/mg, the specific activity ([10]; wild-type, isolated from untreated 293 cells) was 0.13 U/mg and the “Ser382 phosphorylation induced by sorbitol, in words” value (WNK1 Ser382 [11]) was “Sorbitol markedly increased recognition of WNK1[1–667] by a phospho-Ser382 antibody”.

Molecule “WNK1[S382A, 1–661]: mutant expressed in E. coli” has a specific activity [8] of 0.15 U/mg.

Work on “WNK1[S382D, 1–661]: mutant expressed in E. coli” yielded a specific activity [8] of 0.26 U/mg.

In the case of “WNK1[S382E, 1–661]: mutant expressed in E. coli”, the specific activity [8] is reported as 0.66 U/mg.

In the case of “WNK1[S382E, 1–667]: Ser382 to Glu mutant of GST-WNK1[1–667]”, the “effect of sorbitol on activity of mutant, in words” value ([10]; 0.5 M sorbitol, 30 min) is reported as “not enhanced by sorbitol stimulation” and the “basal activity, fold over wild-type WNK1[1–667] from untreated cells” value ([10]; untreated 293 cells) is reported as “over eightfold”.

For pervanadate, the “activation of WNK1 by other stimuli, in words” value [1] was “failed to induce activation of WNK1”.

B1: biotinylated peptide encompassing Ser1261 of WNK1 (biotin-AGRRFIVSPVPESRL) (peptide)
peptide: Biotin-AGRRFIVSPVPESRL
Work on B1 yielded a Kd [12] of about 40 nM.
